From publication PMC11062899, “De novo development of small cyclic peptides that are orally bioavailable” (Nature Chemical Biology, 2023)

Target: human α-thrombin (Homo sapiens, UniProt P00734)
Test: Sub-library screen for active and permeable cyclic peptides (PAMPA plus thrombin inhibition)
Type: biochemical
Details: crude, slopes normalized to DMSO; for Residual thrombin activity: Top sample: PAMPA acceptor well after 14 h, 5 μM donor; for Residual thrombin activity: Equilibrated sample: donor sample diluted to theoretical equilibrium (1 μM in assay)
Protocol: Linear dithiol peptides were synthesized in fritted 5-ml polypropylene syringes on a MultiPep RSi parallel peptide synthesizer (Intavis) by standard Fmoc-based solid-phase peptide synthesis on cysteamine 2-chlorotrityl resin (Sigma-Aldrich, 8.56000, 1.63 mmol g^−1 loading, 25 μmol scale) as described above with small changes. Amino acids (65 μmol, 2.6 eq.) were activated with HATU (63 μmol, 2.5 eq.) and NMM (145 μmol, 5.8 eq.) in 280 μl of DMF and 5 μl of NMP and let to react with the resin (25 μmol, 1 eq.) for 45 min. Couplings were performed twice for each amino acid. Resin was washed once with 800 μl of DMF, and unreacted amines were capped with 5% acetic anhydride and 6% 2,6-lutidine in 400 μl of DMF for 5 min. The resin was washed six times with 600 μl of DMF, and Fmoc protecting groups were removed by incubating the resin twice with 450 μl of a 20% piperidine solution in DMF for 5 min. The resin was washed six times with 600 μl of DMF before proceeding to the next coupling cycle. After completing the last coupling cycle, the resin was washed six times with […] of DCM. Peptide cleavage and ether precipitation were carried out as described above. After quantification with Ellman’s reagent, 1 μmol of each peptide was transferred in seven replicates to new Nunc 96-well DeepWell polypropylene plates and lyophilized. Peptides were cyclized as described above to afford 20 mM cyclic peptide stock solutions in DMSO containing 160 mM HEPES sodium salt. The amine on cyclic peptides was acylated with 5-chlorothiophene-2-carboxylic acid as follows. A 160 mM solution in 5-chlorothiophene-2-carboxylic acid was prepared in DMSO containing 160 mM HEPES sodium salt, and the acid was activated by mixing in equal volumes with a 160 mM HSTU solution in DMSO. Then, 10 μl of the activated carboxylic acid solutions and the cyclic peptide stocks were placed in Echo Qualified 384-well Low Dead Volume microplates (Labcyte), and 400 nl of cyclic peptide and 400 nl of HSTU-activated 5-chlorothiophene-2-carboxylic acid were transferred combinatorially to 384-well microplates (Greiner, 781076) using the Echo 650 acoustic liquid handler (Labcyte). Plates were centrifuged at 2,000 g for 2 min, and the reaction was allowed to proceed at room temperature for 8 h before addition of 39.2 μl of DMSO with a CERTUS FLEX liquid dispenser (Gyger). A volume of 25 μl of the resulting DMSO solutions was diluted with PBS buffer at pH 7.4 containing 5% DMSO in Nunc 96-well DeepWell polypropylene plates to afford 5 μM solutions of the acylated peptides.
The PAMPA plates were covered with a lid to avoid evaporation and incubated for 14 h at room temperature. Additionally, a diluted donor sample was prepared at the concentration representing theoretical maximum permeability (3 μM). Thereby, 30 μl of the donor sample before incubation was diluted with 20 μl of PBS buffer at pH 7.4 containing 5% DMSO. Volumes of 16 μl of each acceptor well and the diluted donor samples were transferred to a 384-well microplate (Greiner, 781076), and thrombin activity was measured as follows. Human α-thrombin (16 μl, 6 nM, Molecular Innovations) in assay buffer was dispensed into each well using a CERTUS FLEX liquid dispenser (Gyger), and plates were incubated at room temperature for 10 min. Then, 16 μl of a 150 μM fluorogenic thrombin substrate solution (Z-Gly-Gly-Arg-AMC, Bachem) in assay buffer containing 1% DMSO was added to each well, and thrombin inhibition was determined by measuring the fluorescent gain over time. Fluorescence intensity was measured on a Tecan Infinite M200 Pro microplate reader for 30 min at 25 °C with a fluorescent readout every 3 min (excitation: 360 nm, emission: 465 nm). Protease inhibition was calculated by comparing the enzymatic activity to a control without cyclic peptide.

SMILES | Residual thrombin activity: Top sample | Residual thrombin activity: Equilibrated sample
O=C1C[C@H]2CCCN2C(=O)[C@H](Cc2ccccc2)NC(=O)[C@@H](NC(=O)c2ccc(Cl)s2)CSC/C=C/CSCCN1 [C1-X5-L4] | 53.7 | 31.7
O=C1C[C@H]2CCCN2C(=O)[C@H](Cc2ccccc2)NC(=O)[C@@H](NC(=O)c2ccc(Cl)s2)CSCc2cccc(c2)CSCCN1 [C1-X5-L5] | 92.1 | 73.3
O=C1C[C@H]2CCCN2C(=O)[C@H](Cc2ccccc2)NC(=O)[C@@H](NC(=O)c2ccc(Cl)s2)CSCc2ccccc2CSCCN1 [C1-X5-L6] | 82.2 | 60.8
O=C1CSCCNC(=O)C[C@H]2CCCN2C(=O)[C@H](Cc2ccccc2)NC(=O)[C@@H](NC(=O)c2ccc(Cl)s2)CSC1 [C1-X5-L7] | 93.6 | 82.8
O=C1C[C@H]2CCCN2C(=O)[C@@H](Cc2ccccc2)NC(=O)[C@@H](NC(=O)c2ccc(Cl)s2)CSCc2cccc(n2)CSCCN1 [C1-X31-L1] | 89.8 | 93.2
O=C1C[C@H]2CCCN2C(=O)[C@@H](Cc2ccccc2)NC(=O)[C@@H](NC(=O)c2ccc(Cl)s2)CSCCS(=O)(=O)CCSCCN1 [C1-X31-L2] | 103.5 | 90.9
O=C1C[C@H]2CCCN2C(=O)[C@@H](Cc2ccccc2)NC(=O)[C@@H](NC(=O)c2ccc(Cl)s2)CSCc2ccc(cc2)CSCCN1 [C1-X31-L3] | 95.4 | 95.0
O=C1C[C@H]2CCCN2C(=O)[C@@H](Cc2ccccc2)NC(=O)[C@@H](NC(=O)c2ccc(Cl)s2)CSC/C=C/CSCCN1 [C1-X31-L4] | 96.8 | 93.6
O=C1C[C@H]2CCCN2C(=O)[C@@H](Cc2ccccc2)NC(=O)[C@@H](NC(=O)c2ccc(Cl)s2)CSCc2cccc(c2)CSCCN1 [C1-X31-L5] | 100.5 | 95.5
O=C1C[C@H]2CCCN2C(=O)[C@@H](Cc2ccccc2)NC(=O)[C@@H](NC(=O)c2ccc(Cl)s2)CSCc2ccccc2CSCCN1 [C1-X31-L6] | 88.4 | 91.2
O=C1CSCCNC(=O)C[C@H]2CCCN2C(=O)[C@@H](Cc2ccccc2)NC(=O)[C@@H](NC(=O)c2ccc(Cl)s2)CSC1 [C1-X31-L7] | 96.8 | 96.3
CN1C(=O)[C@@H](NC(=O)c2ccc(Cl)s2)CSCc2cccc(n2)CSCCNC(=O)C[C@H]2CCCN2C(=O)[C@@H]1Cc1ccccc1 [C1-X32-L1] | 87.6 | 99.6
CN1C(=O)[C@@H](NC(=O)c2ccc(Cl)s2)CSCCS(=O)(=O)CCSCCNC(=O)C[C@H]2CCCN2C(=O)[C@@H]1Cc1ccccc1 [C1-X32-L2] | 96.4 | 95.3
CN1C(=O)[C@@H](NC(=O)c2ccc(Cl)s2)CSCc2ccc(cc2)CSCCNC(=O)C[C@H]2CCCN2C(=O)[C@@H]1Cc1ccccc1 [C1-X32-L3] | 91.1 | 94.0
CN1C(=O)[C@@H](NC(=O)c2ccc(Cl)s2)CSC/C=C/CSCCNC(=O)C[C@H]2CCCN2C(=O)[C@@H]1Cc1ccccc1 [C1-X32-L4] | 95.6 | 100.2
CN1C(=O)[C@@H](NC(=O)c2ccc(Cl)s2)CSCc2cccc(c2)CSCCNC(=O)C[C@H]2CCCN2C(=O)[C@@H]1Cc1ccccc1 [C1-X32-L5] | 98.6 | 96.6

SMILES | Residual thrombin activity: Top sample | Residual thrombin activity: Equilibrated sample
CN1C(=O)[C@@H](NC(=O)c2ccc(Cl)s2)CSCc2ccccc2CSCCNC(=O)C[C@H]2CCCN2C(=O)[C@@H]1Cc1ccccc1 [C1-X32-L6] | 91.7 | 86.4
CN1C(=O)[C@@H](NC(=O)c2ccc(Cl)s2)CSCC(=O)CSCCNC(=O)C[C@H]2CCCN2C(=O)[C@@H]1Cc1ccccc1 [C1-X32-L7] | 95.4 | 96.7
COc1ccc(C[C@@H]2NC(=O)[C@@H](NC(=O)c3ccc(Cl)s3)CSCc3cccc(n3)CSCCNC(=O)C[C@H]3CCCN3C2=O)cc1 [C1-X33-L1] | 92.7 | 96.7
COc1ccc(C[C@@H]2NC(=O)[C@@H](NC(=O)c3ccc(Cl)s3)CSCCS(=O)(=O)CCSCCNC(=O)C[C@H]3CCCN3C2=O)cc1 [C1-X33-L2] | 98.0 | 99.8
COc1ccc(C[C@@H]2NC(=O)[C@@H](NC(=O)c3ccc(Cl)s3)CSCc3ccc(cc3)CSCCNC(=O)C[C@H]3CCCN3C2=O)cc1 [C1-X33-L3] | 96.4 | 98.9
COc1ccc(C[C@@H]2NC(=O)[C@@H](NC(=O)c3ccc(Cl)s3)CSC/C=C/CSCCNC(=O)C[C@H]3CCCN3C2=O)cc1 [C1-X33-L4] | 95.0 | 98.0
COc1ccc(C[C@@H]2NC(=O)[C@@H](NC(=O)c3ccc(Cl)s3)CSCc3cccc(c3)CSCCNC(=O)C[C@H]3CCCN3C2=O)cc1 [C1-X33-L5] | 99.7 | 99.3
COc1ccc(C[C@@H]2NC(=O)[C@@H](NC(=O)c3ccc(Cl)s3)CSCc3ccccc3CSCCNC(=O)C[C@H]3CCCN3C2=O)cc1 [C1-X33-L6] | 89.9 | 95.4
COc1ccc(C[C@@H]2NC(=O)[C@@H](NC(=O)c3ccc(Cl)s3)CSCC(=O)CSCCNC(=O)C[C@H]3CCCN3C2=O)cc1 [C1-X33-L7] | 97.9 | 101.4
O=C1C[C@H]2CCCN2C(=O)[C@H](Cc2ccc(Cl)cc2)NC(=O)[C@@H](NC(=O)c2ccc(Cl)s2)CSCc2cccc(n2)CSCCN1 [C1-X34-L1] | 93.9 | 92.0
O=C1C[C@H]2CCCN2C(=O)[C@H](Cc2ccc(Cl)cc2)NC(=O)[C@@H](NC(=O)c2ccc(Cl)s2)CSCCS(=O)(=O)CCSCCN1 [C1-X34-L2] | 95.9 | 98.3
O=C1C[C@H]2CCCN2C(=O)[C@H](Cc2ccc(Cl)cc2)NC(=O)[C@@H](NC(=O)c2ccc(Cl)s2)CSCc2ccc(cc2)CSCCN1 [C1-X34-L3] | 96.0 | 94.6
O=C1C[C@H]2CCCN2C(=O)[C@H](Cc2ccc(Cl)cc2)NC(=O)[C@@H](NC(=O)c2ccc(Cl)s2)CSC/C=C/CSCCN1 [C1-X34-L4] | 98.7 | 91.7
O=C1C[C@H]2CCCN2C(=O)[C@H](Cc2ccc(Cl)cc2)NC(=O)[C@@H](NC(=O)c2ccc(Cl)s2)CSCc2cccc(c2)CSCCN1 [C1-X34-L5] | 97.0 | 98.5
O=C1C[C@H]2CCCN2C(=O)[C@H](Cc2ccc(Cl)cc2)NC(=O)[C@@H](NC(=O)c2ccc(Cl)s2)CSCc2ccccc2CSCCN1 [C1-X34-L6] | 93.0 | 92.0
O=C1CSCCNC(=O)C[C@H]2CCCN2C(=O)[C@H](Cc2ccc(Cl)cc2)NC(=O)[C@@H](NC(=O)c2ccc(Cl)s2)CSC1 [C1-X34-L7] | 100.2 | 98.8
